{
  "source": "patent US20160220569A1",
  "about": "“CDK4/6 Inhibitor Dosage Formulations For The Protection Of Hematopoietic Stem And Progenitor Cells During Chemotherapy” (G1 Therapeutics, Inc., priority 2015, published 2016)",
  "key": {"[1]": {"experiment": "Hematology (ANC, lymphocytes, hemoglobin, platelets) during etoposide and carboplatin chemotherapy", "format": "in vivo, human", "details": "200 mg/m^2 with etoposide and carboplatin", "text": "As shown in FIG. 63A the absolute neutrophil count though affected by chemotherapy rarely dipped below the G1 phase. As shown in FIG. 63B the lymphocyte count though affected by chemotherapy rarely dipped below the G1 phase. As shown in FIG. 63C the hemoglobin concentration though affected by chemotherapy rarely dipped below the G1 phase. As shown in FIG. 63D the platelet count though affected by chemotherapy rarely dipped below the G1 phase."}, "[2]": {"system": "Target lesions", "experiment": "Tumor response, Compound 1 with topotecan", "format": "in vivo, human", "details": "for Cycle 2 Target Lesion Sum: individual subjects", "experimental": "In Cohort 2 there were 3 subjects who received 1.25 mg/m^2 of topotecan once daily on Days 1 to 5. In Cohort 3 there were 4 subjects who received 0.75 mg/m^2 of topotecan once daily on Days 1 to 5. […] Target lesions were summed and response tabulated as follows: […]"}, "[3]": {"details": "Compound 1 200 mg/m^2 with topotecan, 2 to 4 cycles"}},
  "note": "“And” between values parts separate entries of the source, which are not always exact repeats. Equal values may be shown once.",
  "data": [
    {"smiles": "CN1CCN(c2ccc(Nc3ncc4cc5n(c4n3)C3(CCCCC3)CNC5=O)nc2)CC1", "note": "[Compound 1, 2′-((5-(4-methylpiperazin-1-yl)pyridin-2-yl)amino)-7′,8′-dihydro-6′H-spiro[cyclohexane-1,9′-pyrazino[1′,2′:1,5]pyrrolo[2,3-d]pyrimidin]-6′-one]", "values": [
      {"measurement": "myelotoxicity (ANC, lymphocyte count, hemoglobin, platelet count)", "setting": "[1]", "result": "no clinically relevant myelotoxicity"},
      {"measurement": "Cycle 2 Target Lesion Sum", "setting": "[2]; Compound 1 200 mg/m^2 followed by 1.25 mg/m^2 Topotecan", "result": "22 and 123"},
      {"measurement": "Cycle 2 Target Lesion Sum", "setting": "[2]; Compound 1 200 mg/m^2 followed by .75 mg/m^2 Topotecan", "result": 157},
      {"measurement": "subjects with partial responses", "setting": "[2]; [3]", "result": 3, "unit": "subjects"},
      {"measurement": "subjects with stable disease", "setting": "[2]; [3]", "result": 3, "unit": "subjects"}
    ]}
  ]
}
